According to patent publication US20170224833A1, “SELF-ASSEMBLING MOLECULES THAT ACCUMULATE IN ACIDIC TUMOR MICROENVIRONMENTS” (OHIO STATE INNOVATION FOUNDATION, priority 2014, published 2017):
Each block holds one compound with its values, some of them ahead of it. Residues, ends and D or L forms follow the SMILES beside them. No end group written: not given here. *: point of attachment. Rubipy = bis(2,2'-bipyridine)-4'-methyl-4-carboxybipyridine ruthenium(II), conjugated to the lysine epsilon-amine; Palmitoyl = CCCCCCCCCCCCCCCC(=O)*

Key:
Type in all cases: physicochemical
[1] = MRI r1 relaxivity measurement, 1.5 Tesla; conditions: control standard, 1.5 T
Protocol: An MR relaxometry phantom was built by fixing 5 mm NMR sample tubes containing PA samples at a concentration of 500 μM and pH values 4 and 10 in a 600 ml beaker filled with deionized water. The samples also contained 150 mM NaCl and 2.2 mM CaCl2. The phantom was scanned on a 1.5 Tesla Signa Excite MRI scanner using an 8-channel phased-array head coil (GE Healthcare, Milwaukee, Wis., USA). R relaxometry data were acquired using an Inversion Recovery Fast Spin-Echo (IR-FSE) sequence with the following parameters: inversion time TI=50/100/200/400/600/800/1200/1600/3200 ms; repetition time TR=8000 ms; echo time TE=11 ms; echo train length=10; 90° flip angle; 100×100 mm^2 field-of-view (FOV); 0.5 mm in-plane resolution; 2 mm slice thickness; single coronal slice placed at the center of the phantom. Sample longitudinal relaxation rates (R1) were calculated by fitting the MR signal intensities observed at different TIs (S(TI)) to a three parameter model [Lu et al., MRM 2004]:
S(TI)=|S0×(1−C×exp(−TI×R1))|
Where S0 is the equilibrium signal, C is a constant accounting for imperfect inversion of magnetization. The r1 relaxivity was calculated as the slope in the linear relationship between sample concentrations and their R1 relaxation rates.

[2] = Circular dichroism (CD) spectroscopy of pH-triggered self-assembly transition in 150 mM NaCl, 2.2 mM CaCl2; conditions: for CD Transition pH: 10 μM PA, 150 mM NaCl, 2.2 mM CaCl2, random coil to β-sheet
Protocol: The target PA concentration (10 μM) was below the detectable limit of conventional techniques to determine the morphology such as cryoTEM and small-angle X-ray scattering. Consequently, circular dichroism (CD) spectroscopy was initially used to characterize the morphology of these PAs at various pH values. PA1 was the first molecule synthesized that underwent a self-assembly transition in the desired pH range of 6.6-7.4 at 10 μM PA concentration, in 150 mM NaCl and 2.2 mM CaCl2 (FIG. 2A) (Goldberger, J. E., et al. Angew. Chem. Int. Ed. 2011 50:6292-95). […] The transition pH from random coil to β-sheet occurred at a pH of 6.6. The transition pH was defined as the value at which the ellipticity at 205 nm rises to zero, followed by the appearance of a minimum at 218-220 nm.
Measurements were done on a Jasco-815 Circular Dichroism spectrometer using 1 cm path length quartz cuvettes. 10 μM solutions of peptide amphiphiles were prepared in 150 mM NaCl and 2.2 mM CaCl2 by dilution from a concentrated PA stock (0.5-1 mM, pH 9). Double de-ionized Milli-Q water was used for preparing all solutions. The solutions were then heated at 80° C. for 30 minutes in a water bath and gradually cooled to room temperature. An Accumet XL15 pH meter (Fisher Scientific) coupled with an Orion Ross Ultra semi-micro electrode (8103BNUWP, Thermo Scientific) was used to adjust the pH of the solution to the desired value followed by collection of the CD spectra Each trace shown was averaged over 3 accumulations and was baseline subtracted using aqueous solutions containing salts only. All spectra are cut-off below 205 nm due to absorption by NaCl and CaCl2.
Measurements were done on a Jasco-815 Circular Dichroism spectrometer using 0.5-1 cm path length quartz cuvettes. 500-10 μM of either pure PA or PA mixtures were prepared in 150 mM NaCl and 2.2 mM CaCl2 (and 1.8 mM 20 kDa PEG in select samples) by dilution from a concentrated PA stock (0.5-1 mM, pH 9). Double de-ionized Milli-Q water was used for preparing all solutions. The solutions were then heated at 80° C. for 30 minutes in a water bath and gradually cooled to room temperature. An Accumet XL15 pH meter (Fisher Scientific) coupled with an Orion Ross Ultra semi-micro electrode (8103BNUWP, Thermo Scientific) was used to adjust the pH of the solution to the desired value followed by collection of the CD spectra. Each trace shown was averaged over 3 accumulations and was baseline subtracted using aqueous solutions containing salts only. All spectra are cut-off below 200 nm due to absorption by NaCl and CaCl2. The same procedure was followed for the salt control samples with 3.0 and 4.0 mM CaCl2.
Self-assembly behavior is known to be extremely sensitive to minor changes in monomer structure and presence of impurities. […] CAC measurements via the pyrene 1:3 method (Das, D. et al. J. Colloid Interface Sci. 2008, 327:198) were used to ascertain the single molecule to spherical micelle transitions at varying pH values (FIGS. 24A-24C). CD Spectroscopy was used to determine the pH points at which different concentrations (10-500 μM) of the PA molecules transitioned from a random coil to a β-sheet secondary structure (FIGS. 25A-25C). It has been previously shown that the random coil and β-sheet structures correspond to spherical micellar/isolated molecule and nanofiber morphologies respectively (Ghosh, A. et al. J. Am. Chem. Soc. 2012, 134:3647). The CD transition point was defined to be the pH value at which the ellipticity at 200 nm rose from a negative value (random coil) to zero accompanied by the appearance of a minimum at 218-220 nm. The addition of PA66 shifted the CD transition pH to more basic values by ˜0.6 pH units. […] This ˜0.6 pH shift in CD transition pH to more basic values were also observed when 1.5% of PA67 was added to PA65. […]

[3] = Transmission electron microscopy (TEM) of self-assembled morphology
Protocol: TEM images were obtained using solutions of either 10 μM or 0.5 mM peptide amphiphile concentration, as well as 150 mM NaCl and 2.2 mM CaCl2 in Milli-Q water. The solutions were first heated at 80° C. for 30 minutes in a water bath and then gradually cooled to room temperature. This was followed by pH adjustment using either HCl or NaOH. 5 μL of this solution was pipetted onto a Carbon Formvar grid (Electron Microscopy Sciences) and allowed to sit for 2 minutes before being wicked dry using filter paper. For the 10 μM experiments that were performed to determine the time dependence of nanofiber formation, solutions were dropcast onto the grid within three minutes of pH adjustment. The samples were then negatively stained using 1 wt % uranyl acetate and imaged under a FEI Tecnai G2 Bio TWIN TEM system, operating at 100 kV. All TEM experiments were performed in triplicate, using at least three different freshly prepared solutions and grids. […]
TEM images were obtained at various concentrations and pH values, with 150 mM NaCl and 2.2 mM CaCl2 in deionized water. Solutions were heated at 80° C. for 30 minutes and gradually cooled to room temperature. Following temperature equilibration, pH adjustment was achieved using HCl or NaOH. 5 μL of this solution was pipetted onto a Carbon Formvar grid (Electron Microscopy Sciences) and allowed to sit for 2 minutes before being wicked dry using filter paper strips. The samples were negatively stained with 1 wt % uranyl acetate and imaged under a FEI Tecnai G2 Bio TWIN TEM system operating at 100 kV.
Transmission electron microscopy was employed to confirm the self-assembled morphology at different pH values and concentrations. The sample to be tested was basified to a pH of 10, stirred at 90° C. in an oil bath for 30 minutes and cooled to room temperature. The pH was then adjusted with HCl and NaOH to set the peptide solution (in 150 mM NaCl and 2.2 mM CaCl2) to a pH of either 5 or 9. Once the desired pH was reached, 5 μL of the sample was placed and spread onto a Carbon Formvar grid (Electron Microscopy Sciences) and allowed to sit for one minute before being wicked dry with filter paper. A 1 wt % uranyl acetate solution was added and spread over the grid to negatively stain the sample, and was wicked dry immediately after application. The grid was then examined by a FEI Tecnai G2 Biotwin TEM at 100 keV. The diameters of each self-assembled morphology was determined via averaging at least 30 different objects.

[4] = Fluorescence anisotropy (FA) in mouse blood serum (pure or diluted); conditions: only 1.5% PA67 isolated molecules in serum (control)
Protocol: Fluorescence and FA measurements were done using 20-100 μM of PA mixtures in 150 mM NaCl and 2.2 mM CaCl2 and various serum (MP Biomedicals) concentrations (0.75-100% v/v) diluted in the same salt buffer. PA samples in serum or MSA were not heated and cooled. All samples were then pH adjusted using HCl/NaOH solutions, transferred to a 96-well plate followed by collection of fluorescence emission from PA-(Rubipy)3 first parallel (Ipar) and then perpendicular (Iperp) to the excitation polarization using a hybrid reader fluorimeter (BioTek Synergy H4) at room temperature. The excitation wavelength used was 458 nm and the emission was monitored using a 640/20 nm filter. The same method was followed for control experiments involving serum background samples, dye conjugated MSA, only 1.5% PA-(Rubipy)3 in serum and 100 μM PA mixture in MSA and salt buffer. FA was calculated using the following equation: […]

[5] = pH titration of peptide amphiphiles (pKa); conditions: 10 μM
Protocol: The titration measurements were conducted on 10 μM peptide amphiphile solutions prepared in 150 mM NaCl and 2.2 mM CaCl2 using milli-Q water. The solution was heated at 80° C. for 30 minutes followed by slow cooling at room temperature. The pH of the solution was then adjusted to 4 using HCl. Finally, an Accumet XL15 pH meter (Fisher Scientific) coupled with an Orion Ross Ultra semi-micro electrode (8103BNUWP, Thermo Scientific) was used to track changes in pH of the solution as NaOH solution was added in small increments. pKa values were obtained from the second inflection points of the first derivative plots of the titration data. The first transition corresponds to neutralization of excess HCl. The calculated pKas reflect the average pKa for all four glutamic acids.

[6] = basic to acidic transition from spherical micelle to cylindrical fiber, simulated serum environment (150 mM NaC, 2.2 mM CaCl2)
[7] = basic to acidic transition from small molecule to cylindrical nanofiber, simulated serum environment

Compound: CNC[C@H](O)[C@@H](O)[C@H](O)[C@H](O)CO.CNC[C@H](O)[C@@H](O)[C@H](O)[C@H](O)CO.O=C([O-])CN(CCN(CC(=O)[O-])CC(=O)O)CCN(CC(=O)[O-])CC(=O)O.[Gd+3] [Magnevist, reference compound]
relaxivity of water protons [1]: 4.5 mM⁻¹ s⁻¹

Compound: Palmitoyl-VAAAEEEEK(DO3A:Gd)-NH2 (Palmitoyl-VAAAEEEEK(DO3A)-NH2; also: DO3A chelates Gd) [PA6]
pH transition point at 10 μm PA [2, 6]: 5.3
nanofiber to micelle transition pH, lower than PA5 ([2]; for each concentration (10 μM, 500 μM)): 0.4 units

Compound: Palmitoyl-YAAAEEEEK(DO3A:Gd)-NH2 (Palmitoyl-YAAAEEEEK(DO3A)-NH2; also: DO3A chelates Gd) [PA9]
pH transition point at 10 μm PA [2, 6]: 5.1

Compound: Palmitoyl-IAAAEEEEK(DO3A:Tb)-NH2 (Palmitoyl-IAAAEEEEK(DO3A)-NH2; also: DO3A chelates Tb) [PA7]
pH transition point at 10 μm PA [2, 6]: 5.7

Compound: Palmitoyl-VAAAEEKE-NH2 [PA11]
pH transition point at 10 μm PA [2, 7]: 6.2

nanofiber diameter ([3]; 500 μM, pH 5): 8.5±1.0 nm
nanofiber diameter ([3]; 500 μM, pH 9): 8.6±0.9 nm
CD pattern ([2]; 10 μM, pH 5-11): β-sheet pattern
Compound: palmitoyl-YYAAEEEEK(DO3A:Gd)-NH2 [PA73]

nanofiber diameter ([3]; FIG. 50: pH 5, PA74 500 μM, PA75 100 μM): 8.1±1.3 nm
morphology by TEM ([3]; pH 5, PA74 500 μM, PA75 100 μM): nanofiber morphology
morphology by TEM ([3]; pH 9, PA74 500 μM, PA75 100 μM): spherical micelle morphology
micelle to nanofiber transition pH, more basic than PA74 ([2]; all concentrations observed): 0.15-0.63 pH units
Compound: pentadecyl-YYAAEEEEK(DO3A:Gd)-NH2 [PA75]

Compound: Palmitoyl-MAAAEEEEK-Rubipy (Palmitoyl-MAAAEEEEK(Rubipy); not fully specified (C-terminus); printed as Palmitoyl-MAAAEEEEK-Rubipy) [PA67]
FA, constant independent of pH [4]: ~0.05

CD Transition pH [2]: 6.0
pH transition point at 10 μm PA [2, 7]: 6.0
glutamic acids in the deprotonated form at the transition [5]: 91%
Compound: CCCCCCCCCCCCCCCC(=O)N[C@@H](Cc1ccc(O)cc1)C(=O)N[C@@H](C)C(=O)N[C@@H](C)C(=O)N[C@@H](C)C(=O)N[C@@H](CCC(=O)O)C(=O)N[C@@H](CCC(=O)O)C(=O)N[C@@H](CCC(=O)O)C(=O)N[C@@H](CCC(=O)O)C(N)=O [PA4] (Palmitoyl-YAAAEEEE-NH2)

Compound: Palmitoyl-IAAAEEEEK(DO3A:Lu)-NH2 (Palmitoyl-IAAAEEEEK(DO3A)-NH2; also: DO3A chelates Lu) [PA8]
pH transition point at 10 μm PA [2, 6]: 5.7

CD Transition pH [2]: 6.6
pH transition point at 10 μm PA [2, 7]: 6.6
Compound: CCCCCCCCCCCCCCCC(=O)N[C@@H](Cc1ccccc1)C(=O)N[C@@H](C)C(=O)N[C@@H](C)C(=O)N[C@@H](C)C(=O)N[C@@H](CCC(=O)O)C(=O)N[C@@H](CCC(=O)O)C(=O)N[C@@H](CCC(=O)O)C(=O)N[C@@H](CCC(=O)O)C(N)=O [PA2] (Palmitoyl-FAAAEEEE-NH2)
